Assay results published in patent US20260108546A1 (ELI LILLY AND COMPANY, priority 2024, published 2026).
Counter-ions that a name gives are not always drawn.

Target: T1, hGIP-R (Homo sapiens, UniProt P48546)
T1 construct: expressed in transfected cells; host or cells: HEK-293 clonal cell lines
T1 sequence (P48546 22-466): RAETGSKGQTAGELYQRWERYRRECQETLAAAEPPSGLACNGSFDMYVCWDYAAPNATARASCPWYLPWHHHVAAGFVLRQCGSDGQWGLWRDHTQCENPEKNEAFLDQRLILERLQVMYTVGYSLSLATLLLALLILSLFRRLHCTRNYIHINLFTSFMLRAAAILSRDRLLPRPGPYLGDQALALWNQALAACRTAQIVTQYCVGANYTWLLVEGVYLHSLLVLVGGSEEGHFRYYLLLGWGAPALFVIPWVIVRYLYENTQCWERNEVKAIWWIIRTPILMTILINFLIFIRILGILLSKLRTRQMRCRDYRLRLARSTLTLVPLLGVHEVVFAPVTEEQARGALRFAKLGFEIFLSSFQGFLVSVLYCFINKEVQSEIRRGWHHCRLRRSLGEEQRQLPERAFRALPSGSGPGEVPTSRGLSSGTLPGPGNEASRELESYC
Experiment: Functional hGIP-R Assay (cAMP formation, HTRF)
Format: cell-based
Conditions: for Emax: cAMP efficacy, percent of maximal response to GIP(1-42)OH, 37° C., 0.1% bovine casein, arithmetic mean ± SEM; for EC50: cAMP potency, HEK-293 cells expressing hGIP-R, incubated at 37° C. in the presence of 0.1% bovine casein, geometric mean, read-out: Human GIP-R EC50, nM (SEM, n)
Method in brief: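 Relative EC50 and Emax came from four-parameter logistic fits of cAMP as a percent of the human GIP (1-42) OH maximal response. The cAMP was measured by competitive HTRF after 30 min, 37 °C compound exposure of hGIP-R HEK-293 clones in IBMX (250 μM)-containing medium.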

| Compound | Emax | EC50 |
| --- | --- | --- |
| Cn1cc2cc(-c3ccc([C@H]4C[C@@]45CCN([C@H](Cc4cnn(C(F)F)c4)C(=O)NC4(Cn6nc(C(F)(F)F)cc6-c6cc(F)c(=O)n(C)c6)CC4)C5=O)c(F)c3)cnc2n1 (single isomer, unassigned; isomer 1) [Example 119] | 79.5 ± 5.3% | 144 nM |
| COCn1ncc(-c2cc(C(F)(F)F)nn2CC(C)(C)NC(=O)[C@@H](Cc2cnn(C)c2)NC(=O)[C@H]2C[C@@H]2c2ccc(-c3cnc4nn(C)cc4c3)cc2)n1 [Example 65, (1S,2S)-N—((R)-1-((1-(5-(2-(Methoxymethyl)-2H-1,2,3-triazol-4-yl)-3-(trifluoromethyl)-1H-pyrazol-1-yl)-2-methylpropan-2-yl)amino)-3-(1-methyl-1H-pyrazol-4-yl)-1-oxopropan-2-yl)-2-(4-(2-methyl-2H-pyrazolo[3,4-b]pyridin-5-yl)phenyl)cyclopropane-1-carboxamide] | 113 ± 4.23% | 38.1 nM |
| Cn1cc2cc(-c3ccc([C@H]4C[C@@]45CCN([C@H](Cc4cnn(C(F)F)c4)C(=O)NC(C)(C)Cn4nc(C(F)(F)F)cc4-c4ccc(OC(F)F)nn4)C5=O)cc3)cnc2n1 [Example 121, (R)-N-(1-(5-(6-(Difluoromethoxy)pyridazin-3-yl)-3-(trifluoromethyl)-1H-pyrazol-1-yl)-2-methylpropan-2-yl)-3-(1-(difluoromethyl)-1H-pyrazol-4-yl)-2-((1R,3R)-1-(4-(2-methyl-2H-pyrazolo[3,4-b]pyridin-5-yl)phenyl)-4-oxo-5-azaspiro[2.4]heptan-5-yl)propanamide] | 74.6 ± 1.47% | 107 nM |
| Cn1cc2cc(-c3ccc([C@H]4C[C@@]45CCN([C@H](Cc4cnn(C(F)F)c4)C(=O)NC(C)(C)Cn4nc(C(F)(F)F)cc4-c4ccc(C#N)nc4)C5=O)cc3)cnc2n1 [Example 143, (R)-N-(1-(5-(6-Cyanopyridin-3-yl)-3-(trifluoro-methyl)-1H-pyrazol-1-yl)-2-methylpropan-2-yl)-3-(1-(difluoro-methyl)-1H-pyrazol-4-yl)-2-((1R,3R)-1-(4-(2-methyl-2H-pyrazolo[3,4-b]pyridin-5-yl)phenyl)-4-oxo-5-azaspiro[2.4]heptan-5-yl)propanamide] | 72.8 ± 3.32% | 57.7 nM |
| [2H]C([2H])([2H])n1cc(C[C@H](C(=O)NC(C)(C)Cn2nc(C(F)(F)F)cc2-c2ccc(C(C)(C)O)nc2)N2CC[C@@]3(C[C@@H]3c3ccc(-c4cnc5nc(C6CC6)cn5c4)nc3C)C2=O)cn1 [Example 185, (R)-2-((1R,3R)-1-(6-(2-cyclopropylimidazo[1,2-a]pyrimidin-6-yl)-2-methylpyridin-3-yl)-4-oxo-5-azaspiro[2.4]heptan-5-yl)-N-(1-(5-(6-(2-hydroxypropan-2-yl)pyridin-3-yl)-3-(trifluoromethyl)-1H-pyrazol-1-yl)-2-methylpropan-2-yl)-3-(1-(methyl-d3)-1H-pyrazol-4-yl)propanamide] | 115 ± 5.3% | 0.402 nM |
| Cn1cc2cc(-c3ccc([C@H]4C[C@@]45CCN([C@H](Cc4cnn(C(F)F)c4)C(=O)NC(C)(C)Cn4nc(C(F)(F)F)cc4-c4cc(C(F)(F)F)c(=O)n(C)c4)C5=O)cc3)cnc2n1 [Example 130, (R)-3-(1-(Difluoromethyl)-1H-pyrazol-4-yl)-N-(2-methyl-1-(5-(1-methyl-6-oxo-5-(trifluoromethyl)-1,6-dihydropyridin-3-yl)-3-(trifluoromethyl)-1H-pyrazol-1-yl)propan-2-yl)-2-((1R,3R)-1-(4-(2-methyl-2H-pyrazolo[3,4-b]pyridin-5-yl)phenyl)-4-oxo-5-azaspiro[2.4]heptan-5-yl)propanamide] | 74.9 ± 11.6% | 104 nM |
| CC(C)(Cn1cc(C(F)(F)F)cn1)NC(=O)[C@@H](Cc1cnc2ncccn12)NC(=O)[C@H]1C[C@@H]1c1ccc(-c2cnc3nc(C4CCC4)cn3c2)cc1 [Example 78, (1S,2S)-2-(4-(2-Cyclobutylimidazo[1,2-a]pyrimidin-6-yl)phenyl)-N-((R)-3-(imidazo[1,2-a]pyrimidin-3-yl)-1-((2-methyl-1-(4-(trifluoromethyl)-1H-pyrazol-1-yl)propan-2-yl)amino)-1-oxopropan-2-yl)cyclopropane-1-carboxamide] | 113 ± 18.8% | 20.3 nM |
| CCn1cc2cc(-c3ccc([C@H]4C[C@@]45CCN([C@H](Cc4cnn(C(F)F)c4)C(=O)NC(C)(C)Cn4nc(C(F)(F)F)cc4-c4cnc(C(C)(C)O)nc4)C5=O)c(C)n3)cnc2n1 [Example 164, (R)-3-(1-(difluoromethyl)-1H-pyrazol-4-yl)-2-((1R,3R)-1-(6-(2-ethyl-2H-pyrazolo[3,4-b]pyridin-5-yl)-2-methylpyridin-3-yl)-4-oxo-5-azaspiro[2.4]heptan-5-yl)-N-(1-(5-(2-(2-hydroxypropan-2-yl)pyrimidin-5-yl)-3-(trifluoromethyl)-1H-pyrazol-1-yl)-2-methylpropan-2-yl)propanamide] | 53.3 ± 0.286% | 4.31 nM |
| Cn1cc2cc(-c3ccc([C@H]4C[C@@]45CCN([C@H](Cc4cnn(C(F)F)c4)C(=O)NC(C)(C)Cn4nc(C(F)(F)F)cc4-c4cn(C)c(=O)c6ccccc46)C5=O)cc3)cnc2n1 [Example 129, (R)-3-(1-(Difluoromethyl)-1H-pyrazol-4-yl)-N-(2-methyl-1-(5-(2-methyl-1-oxo-1,2-dihydroisoquinolin-4-yl)-3-(trifluoromethyl)-1H-pyrazol-1-yl)propan-2-yl)-2-((1R,3R)-1-(4-(2-methyl-2H-pyrazolo[3,4-b]pyridin-5-yl)phenyl)-4-oxo-5-azaspiro[2.4]heptan-5-yl)propanamide] | 78.6 ± 6.28% | 138 nM |
| Cn1cc(C[C@@H](NC(=O)[C@H]2C[C@@H]2c2ccc(-c3cnc4nn(C)cc4c3)cc2)C(=O)NC(C)(C)Cn2nc(C(F)(F)F)cc2-n2ccccc2=O)cn1 [Example 20, (1S,2S)-N-((R)-1-((2-Methyl-1-(5-(2-oxopyridin-1(2H)-yl)-3-(trifluoromethyl)-1H-pyrazol-1-yl)propan-2-yl)amino)-3-(1-methyl-1H-pyrazol-4-yl)-1-oxopropan-2-yl)-2-(4-(2-methyl-2H-pyrazolo[3,4-b]pyridin-5-yl)phenyl) cyclopropane-1-carboxamide] | 126 ± 2.39% | 79.7 nM |
| Cc1cn2cc(-c3ccc([C@H]4C[C@@]45CCN([C@H](Cc4cnn(C(F)F)c4)C(=O)NC(C)(C)Cn4nc(C(F)(F)F)cc4-c4ccc(=O)n(COP(=O)(O)O)n4)C5=O)c(Cl)c3)cnc2n1 [Example 150, (3-(1-(2-((R)-2-((1S,3R)-1-(2-Chloro-4-(2-methylimidazo[1,2-a]pyrimidin-6-yl)phenyl)-4-oxo-5-azaspiro[2.4]heptan-5-yl)-3-(1-(difluoromethyl)-1H-pyrazol-4-yl)propanamido)-2-methylpropyl)-3-(trifluoromethyl)-1H-pyrazol-5-yl)-6-oxopyridazin-1 (6H)-yl)methyl dihydrogen phosphate] | 89.5 ± 6.21% | 2.06 nM |
| [2H]C([2H])([2H])n1cc(C[C@H](C(=O)NC(C)(C)Cn2nc(C(F)(F)F)cc2-c2cnc(C(C)(C)OP(=O)(O)O)nc2)N2CC[C@@]3(C[C@@H]3c3ccc(-c4cnc5nn(C)cc5c4)cc3Cl)C2=O)cn1 [Example 198, 2-(5-(1-(2-((R)-2-((1S,3R)-1-(2-Chloro-4-(2-methyl-2H-pyrazolo[3,4-b]pyridin-5-yl)phenyl)-4-oxo-5-azaspiro[2.4]heptan-5-yl)-3-(1-(methyl-d3)-1H-pyrazol-4-yl)propanamido)-2-methylpropyl)-3-(trifluoromethyl)-1H-pyrazol-5-yl)pyrimidin-2-yl)propan-2-yl dihydrogen phosphate, ammonia salt] | 90.3% | 1.81 nM |
| [2H]C([2H])([2H])n1cc(C[C@H](C(=O)NC(C)(C)Cn2nc(C(F)(F)F)cc2-c2ccc(C(C)(C)OP(=O)(O)O)nc2)N2CC[C@@]3(C[C@@H]3c3ccc(-c4cnc5nn(C)cc5c4)cc3Cl)C2=O)cn1 [Example 195, 2-(5-(1-(2-((R)-2-((1S,3R)-1-(2-Chloro-4-(2-methyl-2H-pyrazolo[3,4-b]pyridin-5-yl)phenyl)-4-oxo-5-azaspiro[2.4]heptan-5-yl)-3-(1-(methyl-d3)-1H-pyrazol-4-yl)propanamido)-2-methylpropyl)-3-(trifluoromethyl)-1H-pyrazol-5-yl)pyridin-2-yl)propan-2-yl dihydrogen phosphate, ammonia salt] | 88.8% | 2.36 nM |
| Cc1cn2cc(-c3ccc([C@H]4C[C@@]45CCN([C@H](Cc4cnn(C(F)F)c4)C(=O)NC(C)(C)Cn4nc(C(F)(F)F)cc4-c4ccc(=O)[nH]n4)C5=O)c(F)c3)cnc2n1 [Example 149, (R)-3-(1-(Difluoromethyl)-1H-pyrazol-4-yl)-2-((1S,3R)-1-(2-fluoro-4-(2-methylimidazo[1,2-a]pyrimidin-6-yl)phenyl)-4-oxo-5-azaspiro[2.4]heptan-5-yl)-N-(2-methyl-1-(5-(6-oxo-1,6-dihydropyridazin-3-yl)-3-(trifluoromethyl)-1H-pyrazol-1-yl)propan-2-yl)propanamide] | 73.2 ± 2.43% | 5.57 nM |
